Data published in US6511827B1 (Merck & Co., Inc., priority 1997, dated 2003).
pKd: −log10 of the molar value.

Assays:
galanin receptors = settings: hypothalamus, ventral hippocampus, basal forebrain, spinal cord, pancreas and pituitary; cited from earlier work
human GALR3 = assay: Specific binding of ^125I-galanin radioligands to membranes of COS-7 cells transfected with GALR3 clones, as a function of membrane protein
Method: Mammalian COS-7 cells were transfected by electroporation. COS-7 cells (1×10^7) were suspended in 0.85 ml of Ringers' buffer and […] of the GALR3-2 or GALR3—3 expression plasmid was added to a 0.4 mm electroporation cuvette (Bio-Rad, Hercules, Calif.). Current was applied ([…], 260 V) using a Bio-Rad Electroporator device and the cells were transferred to a T-180 flask (Corning). Expression was allowed to proceed for 72 hrs.
Membranes were prepared from transfected cells following dissociation in enzyme-free dissociation solution (Specialty Media, Lavallette, N.J.) by disruption in a Dounce homogenizer in ice-cold membrane buffer (10 mM Tris, pH 7.4, 10 mM PMSF, […], and […]). After a low speed (1100×g for 10 min. at 4° C.) and a high speed centrifugation (38,700×g for 15 min. at 4° C.), membranes were resuspended in buffer and protein concentration determined (Bio-Rad assay kit). […] Reactions were initiated by the addition of membranes and the incubation was allowed to proceed at room temperature for 1 hour. […] Titration of membrane protein from 1 to 50 μg was conducted. […] Incubations were terminated by rapid filtration through GF/C filters which had been presoaked with 0.1% polyethylamine using a TOMTEC (Orange, Conn.) cell harvester. The results were analyzed using the Prism software package (GraphPad, San Diego, Calif.).

For ^125I-galanin, the pKd (galanin receptors) is listed as roughly 9.00.

For ^125I-human galanin, the “Specific binding of radioligand” value (human GALR3; Clone GALR3-3, membrane protein 5 μg) was 211 cpm, the “Specific binding of radioligand” value (human GALR3; Clone GALR3-3, membrane protein 10 μg) was 407 cpm and the “Specific binding of radioligand” value (human GALR3; Clone GALR3-3, membrane protein 20 μg) was 886 cpm. For the same substance, the “Specific binding of radioligand” value (human GALR3; Clone GALR3-3, membrane protein 50 μg) was 2061 cpm.
